Measurements published in ChEMBL document CHEMBL4417636, “Small molecule inhibitors of pendrin ion exchange and pharmaceutical compositions” (2017).
Calls of active or inactive are those of the source. The rule behind the calls is not given here.

Legend:
[1] = target: T1, Band 3 anion transport protein (Mus musculus) (UniProt P04919); test: Inhibition of mouse Slc4a1 expressed in COS7 co-expressing EYFP-HIF assessed as effect on SCN(-) gradient at 25 uM by YFP-based fluorescence quenching assay
T1 sequence (whole entry): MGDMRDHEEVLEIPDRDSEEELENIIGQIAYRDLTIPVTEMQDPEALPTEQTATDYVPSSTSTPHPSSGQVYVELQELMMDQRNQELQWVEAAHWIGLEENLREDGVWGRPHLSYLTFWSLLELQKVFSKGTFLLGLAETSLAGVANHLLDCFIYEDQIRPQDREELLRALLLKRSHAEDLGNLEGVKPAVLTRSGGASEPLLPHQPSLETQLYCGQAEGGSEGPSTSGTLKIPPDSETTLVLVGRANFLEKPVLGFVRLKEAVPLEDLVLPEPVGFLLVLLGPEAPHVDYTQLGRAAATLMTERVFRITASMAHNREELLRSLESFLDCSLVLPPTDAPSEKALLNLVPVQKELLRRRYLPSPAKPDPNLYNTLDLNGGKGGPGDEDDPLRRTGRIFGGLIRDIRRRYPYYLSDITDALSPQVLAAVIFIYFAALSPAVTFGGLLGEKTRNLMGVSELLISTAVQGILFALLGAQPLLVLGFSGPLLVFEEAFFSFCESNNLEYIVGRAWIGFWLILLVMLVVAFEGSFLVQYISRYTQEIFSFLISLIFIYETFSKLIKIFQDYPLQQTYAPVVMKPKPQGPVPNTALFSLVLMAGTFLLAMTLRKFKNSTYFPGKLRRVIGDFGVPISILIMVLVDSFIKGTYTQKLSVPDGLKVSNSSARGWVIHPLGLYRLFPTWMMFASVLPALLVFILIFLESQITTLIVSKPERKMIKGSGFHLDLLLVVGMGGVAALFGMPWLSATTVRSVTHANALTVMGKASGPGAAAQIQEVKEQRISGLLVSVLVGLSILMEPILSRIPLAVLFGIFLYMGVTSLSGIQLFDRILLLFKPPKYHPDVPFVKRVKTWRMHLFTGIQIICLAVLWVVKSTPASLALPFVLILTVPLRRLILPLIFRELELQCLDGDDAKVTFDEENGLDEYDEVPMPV

Mus musculus [2] = test: Potentiation of 5 to 50 mg/kg, ip furosemide-induced acute diuretic action in CD1 mouse assessed as increase in urine volume at 50 mg/kg, ip relative to control; type: functional, organism-based
Mus musculus [3] = test: Potentiation of 20 mg/kg, ip furosemide-induced acute diuretic action in CD1 mouse assessed as effect on urinary K+ excretion at 50 mg/kg, ip measured at 3 hrs relative to control; type: functional, organism-based
[4] = target: T2, Solute carrier family 12 member 2 (Homo sapiens) (UniProt P55011); test: Inhibition of NKCC1 in human bronchial epithelial cells assessed as effect on short-circuit current at 25 uM pre-incubated for 30 mins
T2 sequence (whole entry): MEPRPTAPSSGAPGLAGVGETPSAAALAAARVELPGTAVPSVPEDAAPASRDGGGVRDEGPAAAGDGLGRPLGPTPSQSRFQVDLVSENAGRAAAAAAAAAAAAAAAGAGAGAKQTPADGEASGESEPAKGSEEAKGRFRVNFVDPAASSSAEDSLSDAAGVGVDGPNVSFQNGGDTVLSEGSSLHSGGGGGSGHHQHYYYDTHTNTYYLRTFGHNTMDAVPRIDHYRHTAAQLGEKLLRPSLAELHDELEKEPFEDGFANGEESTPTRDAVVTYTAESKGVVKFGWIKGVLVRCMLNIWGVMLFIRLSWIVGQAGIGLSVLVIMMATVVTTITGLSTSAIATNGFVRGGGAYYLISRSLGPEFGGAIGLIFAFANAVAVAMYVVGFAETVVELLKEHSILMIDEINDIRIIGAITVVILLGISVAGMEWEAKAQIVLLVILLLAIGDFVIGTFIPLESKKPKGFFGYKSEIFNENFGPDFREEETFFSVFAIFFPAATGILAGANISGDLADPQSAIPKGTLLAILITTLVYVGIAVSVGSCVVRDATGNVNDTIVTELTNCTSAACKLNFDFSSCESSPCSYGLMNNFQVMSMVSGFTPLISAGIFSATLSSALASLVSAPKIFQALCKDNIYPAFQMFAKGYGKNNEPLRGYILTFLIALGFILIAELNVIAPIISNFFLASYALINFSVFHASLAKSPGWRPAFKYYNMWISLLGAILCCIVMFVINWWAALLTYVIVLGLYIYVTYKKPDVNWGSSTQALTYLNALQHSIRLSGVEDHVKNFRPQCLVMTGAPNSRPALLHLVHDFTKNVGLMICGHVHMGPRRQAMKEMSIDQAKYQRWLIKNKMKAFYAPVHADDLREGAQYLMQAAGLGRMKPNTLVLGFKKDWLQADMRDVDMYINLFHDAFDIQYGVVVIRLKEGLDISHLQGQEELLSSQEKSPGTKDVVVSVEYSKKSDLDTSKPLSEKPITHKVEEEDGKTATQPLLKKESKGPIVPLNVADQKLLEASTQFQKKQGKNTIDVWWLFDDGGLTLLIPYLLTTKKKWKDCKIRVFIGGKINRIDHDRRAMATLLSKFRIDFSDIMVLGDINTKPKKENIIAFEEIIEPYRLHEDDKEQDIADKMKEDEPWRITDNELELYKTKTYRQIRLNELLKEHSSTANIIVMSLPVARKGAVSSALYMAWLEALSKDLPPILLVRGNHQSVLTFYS

Row | inhibition [1] | inhibition [4] | SMILES | Activity (Mus musculus [2]) | Activity (Mus musculus [3])
1 | inactive | – | Cc1n[nH]c(-c2cc(S(=O)(=O)NC3CCCc4ccccc43)c(C)s2)c1C (centres undefined) | Active | inactive
2 | – | inactive | Cn1nc(COc2cccc(F)c2)c2c1CCN(C(=O)Nc1ccc(Cl)cc1)C2 | – | –
